Measured values taken from patent US20090028816A1, “Treatment of depression, psychosis, and anxiety” (priority 2007, published 2009).

Assay: Range-finding tolerability and efficacy studies in neurological models
Format: in vivo
Conditions: intraperitoneally at dose levels up to 15 mg/kg twice a day (bid) for multiple days
Description: Ibudilast is obtained as a pure powder from Sigma (St. Louis, Mo.) or Haorui Pharma (Edison, N.J.) and prepared daily as a solution for intraperitoneal or oral administration. Previous range-finding tolerability and efficacy studies in neurological models indicate that ibudilast is well-tolerated intraperitoneally at dose levels up to 15 mg/kg twice a day (bid) for multiple days. An appropriate amount of ibudilast is dissolved in 100% […] (PEG) 400 (Sigma) and then diluted down to a final concentration of 35% PEG400 in sterile saline (0.9% for injection). Drug stability and concentration are validated by HPLC/MS/MS.

Compound: CC(C)C(=O)c1c(C(C)C)nn2ccccc12 [Ibudilast, 3-isobutyryl-2-isopropylpyrazolo[1,5-a]pyridine]
- tolerability, intraperitoneal: well-tolerated
